This note sets out measurements from ChEMBL document CHEMBL1141845, “A new bistetrahydrofuran acetogenin from the roots of Annona salzmanii” (J Nat Prod, 1999).

In one data set the test system is KB. Put plainly: Cytotoxicity against human KB cells. In kind it is functional.
A short description of data set [1]: Cytotoxicity against african green monkey Vero cells. The class given is cell-based. To be noted: chlorocebus sabaeus, read-out: ED50 (the source's name).

`CCCCCC[C@H](O)CCC[C@H](O)[C@H]1CC[C@@H]([C@H]2CC[C@H]([C@H](O)CC[C@H](O)CCCCCCCCCC3=C[C@H](C)OC3=O)O2)O1` [SALZMANIN] had an ED50 in the data set on KB of 0.1 ×10⁻⁴ ug/ml. In addition, the CC50 in data set [1] is greater than 0.01 µg/mL.

Turning to `CCCCCC[C@H](O)CCC[C@H](O)[C@H]1CC[C@H]([C@H]2CC[C@H]([C@H](O)CCCCCCCCCCCCC3=C[C@H](C)OC3=O)O2)O1` [SQUAMOCIN], the ED50 with KB is on record as 4 ×10⁻⁴ ug/ml.

`CC[C@]1(O)C[C@@H]2CN(CCc3c([nH]c4ccccc34)[C@@](C(=O)OC)(c3cc4c(cc3OC)N(C)[C@H]3[C@@](O)(C(=O)OC)[C@H](OC(C)=O)[C@]5(CC)C=CCN6CC[C@]43[C@@H]65)C2)C1` [VINBLASTINE] registered an ED50 in the data set on KB of 0.1 ×10⁻⁴ ug/ml.
